Test results: patent US20130137856A1, “PROTEIN BINDING DOMAINS STABILIZING FUNCTIONAL CONFORMATIONAL STATES OF GPCRS AND USES THEREOF” (priority 2010, published 2013)
Where a name gives a salt, the structure may show the parent alone. Read-outs that look alike come from different tables or passages of the source.

Legend:
β2AR-T4L = biological target: T1, β2AR-T4L (Homo sapiens, UniProt P07550, DEL231-262, form not given); test: [3H]-DHA saturation binding on β2AR-T4L reconstituted in HDL particles; settings: read-out: [3H]-DHA saturation binding Kd ± S.E.
T1 construct: The β2AR and β2AR-T4L (both truncated at position 365) purified as previously described (Rosenbaum et al. 2007); fused on or other part: T4 lysozyme (in the cited construct residues 2-161, C54T/C97A) inserted in place of the third intracellular loop as a crystallisation aid
Procedure: (§1) The effect of Nb80 and Gs on the receptors affinity for agonists was compared in competition binding experiments. The β2AR and β2AR-[…] (both […]) purified as previously described (Rosenbaum et al. 2007; […] GTPγS was used at 10 μM. […] Bound ^3H-DHA was separated from unbound on a Brandel harvester by passing over a Whatman GF/B filter (presoaked in TBS with 0.3% polyethylenimine) and washed in cold TBS. Radioligand binding was measured in a Beckman LS6000 scintillation counter. Ligand binding affinity (Kd) of DHA was determined from saturation binding curves using GraphPad Prism software.

β2AR [1] = biological target: T2, β2AR (Homo sapiens, UniProt P07550); test: [3H]-DHA saturation binding on β2AR reconstituted in HDL particles; parameters: recombinant β2AR truncated at Gly365 (β2AR-365); made in house; host or cells: Sf9 insect cells (membranes); settings: read-out: [3H]-DHA saturation binding Kd ± S.E.
Procedure: as §1

β2AR [2] = biological target: T2, β2AR; test: Competition radioligand binding on commercial insect cell membranes with full-length human β2AR, Nb80 versus irrelevant Nb
[3] = 500 nM Nb80 or irrelevant Nb, 2 nM 3H-DHA radioligand

Molecule	Potency shift (ratio of IC50 with irrelevant Nb to IC50 with Nb80) (β2AR [2]; [3])	further results
CCCc1ccccc1OCC(O)CNC(C)C (stereo not shown) [[^3H]-DNA, [^3H]-dihydroalprenolol]		Kd (β2AR-T4L): 0.42 ± 0.01 nM; Kd (β2AR [1]): 0.55 ± 0.09 nM
CC(CCc1ccc(O)cc1)NCCc1ccc(O)c(O)c1 (stereo not shown) [dobutamine, dobutamine hydrochloride]	2.3	
CC(Cc1ccc(O)cc1)NCC(O)c1cc(O)cc(O)c1 (stereo not shown) [fenoterol, fenoterol hydrobromide]	3.7	
CCC(NC(C)C)C(O)c1ccc(O)c2[nH]c(=O)ccc12 (stereo not shown) [procaterol, procaterol hydrochloride]	2.3	
CC(NCCc1ccc(O)cc1)C(O)c1ccc(O)cc1 (stereo not shown) [ritodrine, ritodrine hydrochloride]	2.7	
metaproterenol hemisulfate salt		Potency shift (ratio of IC50 with irrelevant Nb to IC50 with Nb80) (β2AR [2]): 2.9
